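Five compound concentrations were applied to cells in 96-well plates for 48 hours; endpoints were derived by simple linear interpolation of the resulting dose-response curve. Here, GI50 denotes the concentration required for 50% inhibition of growth.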 The source made the active and inactive calls. No stated cut-off is given here; in the data, active = GI50 up to about 1.1 µM and inactive = higher.
Columns and labels:
Experiment in all cases: NCI-60 cell line screen, 48 h
[1] = system: SF-295
[2] = system: NCI-H522
[3] = system: IGROV-1
[4] = system: KM12
[5] = system: UO-31
[6] = system: SK-MEL-2
[7] = system: DLD-1
[8] = system: LOX IMVI
[9] = system: SK-OV-3
[10] = system: SF-268
[11] = system: SK-MEL-28
[12] = system: M19-MEL
[13] = system: DMS-273
[14] = system: XF498
[15] = system: HOP-18
[16] = system: MOLT-4
[17] = system: NCI-H226
[18] = system: NCI-H460
[19] = system: RPMI-8226
[20] = system: EKVX
[21] = system: U-251
[22] = system: Malme-3M
[23] = system: NCI-H23
[24] = system: OVCAR-3
[25] = system: SNB-19
[26] = system: CAKI-1
[27] = system: TK-10
[28] = system: SN12C
[29] = system: RXF 393
[30] = system: HOP-62
[31] = system: 786-0
[32] = system: COLO 205
[33] = system: K562
[34] = system: SNB-75
[35] = system: A498
[36] = system: KM-20L2
[37] = system: SK-MEL-5
[38] = system: CCRF-CEM
[39] = system: HCT-15
[40] = system: ACHN
[41] = system: UACC-62
[42] = system: HT-29
[43] = system: HCT-116
[44] = system: OVCAR-8
[45] = system: DMS-114
[46] = system: LXFL 529
[47] = system: A549
[48] = system: OVCAR-4
[49] = system: OVCAR-5
[50] = system: SW-620
[51] = system: SNB-78
[52] = system: SF-539
[53] = system: HL-60
[54] = system: HOP-92
[55] = system: M14
[56] = system: SR
[57] = system: UACC-257
[58] = system: HCC 2998
[59] = system: RXF 631

**Q.** For COc1cc(/C=N\c2ccc(C(C)C)cc2)cc(OC)c1OC, which GI50 [1] is on record?
**A.** Its GI50 is > 100 µM (inactive).

**Q.** And the GI50 [2]?
**A.** The GI50 was > 59.7 µM (inactive).

**Q.** And the GI50 [3]?
**A.** The GI50 was > 100 µM (inactive).

**Q.** What about the GI50 [4] of the same compound?
**A.** The GI50 was > 100 µM (inactive).

**Q.** And the GI50 [5]?
**A.** Its GI50 is > 74.1 µM (inactive).

**Q.** What about the GI50 [6] of the same compound?
**A.** Its GI50 is > 100 µM (inactive).

**Q.** What about the GI50 [7] of the same compound?
**A.** The GI50 was > 100 µM (inactive).

**Q.** What about the GI50 [8] of the same compound?
**A.** The GI50 was > 54.7 µM (inactive).

**Q.** And the GI50 [9]?
**A.** Its GI50 is > 100 µM (inactive).

**Q.** What about the GI50 [10] of the same compound?
**A.** The GI50 was > 100 µM (inactive).

**Q.** What about the GI50 [11] of the same compound?
**A.** The GI50 was > 100 µM (inactive).

**Q.** And the GI50 [12]?
**A.** The GI50 was > 92 µM (inactive).

**Q.** What about the GI50 [13] of the same compound?
**A.** Its GI50 is > 72.4 µM (inactive).

**Q.** What about the GI50 [14] of the same compound?
**A.** Its GI50 is > 100 µM (inactive).

**Q.** What about the GI50 [15] of the same compound?
**A.** Its GI50 is > 100 µM (inactive).

**Q.** What about the GI50 [16] of the same compound?
**A.** Its GI50 is > 100 µM (inactive).

**Q.** What about the GI50 [17] of the same compound?
**A.** Its GI50 is > 100 µM (inactive).

**Q.** And the GI50 [18]?
**A.** Its GI50 is 97.3 µM (inactive).

**Q.** What about the GI50 [19] of the same compound?
**A.** The GI50 was > 42 µM (inactive).

**Q.** What about the GI50 [20] of the same compound?
**A.** The GI50 was > 100 µM (inactive).

**Q.** And the GI50 [21]?
**A.** The GI50 was > 100 µM (inactive).

**Q.** What about the GI50 [22] of the same compound?
**A.** The GI50 was > 100 µM (inactive).

**Q.** And the GI50 [23]?
**A.** The GI50 was > 100 µM (inactive).

**Q.** What about the GI50 [24] of the same compound?
**A.** Its GI50 is > 100 µM (inactive).

**Q.** And the GI50 [25]?
**A.** Its GI50 is > 100 µM (inactive).

**Q.** And the GI50 [26]?
**A.** Its GI50 is > 100 µM (inactive).

**Q.** And the GI50 [27]?
**A.** The GI50 was > 100 µM (inactive).

**Q.** And the GI50 [28]?
**A.** The GI50 was > 100 µM (inactive).

**Q.** What about the GI50 [29] of the same compound?
**A.** The GI50 was > 100 µM (inactive).

**Q.** And the GI50 [30]?
**A.** Its GI50 is > 100 µM (inactive).

**Q.** And the GI50 [31]?
**A.** Its GI50 is > 100 µM (inactive).

**Q.** And the GI50 [32]?
**A.** Its GI50 is > 73.6 µM (inactive).

**Q.** And the GI50 [33]?
**A.** Its GI50 is > 50.4 µM (inactive).

**Q.** What about the GI50 [34] of the same compound?
**A.** Its GI50 is 98.4 µM (inactive).

**Q.** And the GI50 [35]?
**A.** Its GI50 is > 100 µM (inactive).

**Q.** What about the GI50 [36] of the same compound?
**A.** Its GI50 is > 100 µM (inactive).

**Q.** And the GI50 [37]?
**A.** Its GI50 is > 78 µM (inactive).

**Q.** And the GI50 [38]?
**A.** Its GI50 is > 66.8 µM (inactive).

**Q.** What about the GI50 [39] of the same compound?
**A.** The GI50 was over 55.5 µM.

**Q.** And the GI50 [40]?
**A.** The GI50 was > 100 µM (inactive).

**Q.** And the GI50 [41]?
**A.** The GI50 was > 100 µM (inactive).

**Q.** And the GI50 [42]?
**A.** The GI50 was > 100 µM (inactive).

**Q.** What about the GI50 [43] of the same compound?
**A.** The GI50 was > 100 µM (inactive).

**Q.** And the GI50 [44]?
**A.** The GI50 was > 100 µM (inactive).

**Q.** And the GI50 [45]?
**A.** The GI50 was 49.5 µM (inactive).

**Q.** And the GI50 [46]?
**A.** Its GI50 is 99.5 µM (inactive).

**Q.** What about the GI50 [47] of the same compound?
**A.** Its GI50 is > 100 µM (inactive).

**Q.** And the GI50 [48]?
**A.** The GI50 was > 100 µM (inactive).

**Q.** And the GI50 [49]?
**A.** Its GI50 is > 100 µM (inactive).

**Q.** And the GI50 [50]?
**A.** Its GI50 is > 37 µM (inactive).

**Q.** What about the GI50 [51] of the same compound?
**A.** Its GI50 is > 100 µM (inactive).

**Q.** What about the GI50 [52] of the same compound?
**A.** The GI50 was > 100 µM (inactive).

**Q.** What about the GI50 [53] of the same compound?
**A.** Its GI50 is > 40.9 µM (inactive).

**Q.** What about the GI50 [54] of the same compound?
**A.** The GI50 was > 88.3 µM (inactive).

**Q.** What about the GI50 [55] of the same compound?
**A.** Its GI50 is > 100 µM (inactive).

**Q.** And the GI50 [56]?
**A.** Its GI50 is 54.3 µM (inactive).

**Q.** What about the GI50 [57] of the same compound?
**A.** Its GI50 is > 100 µM (inactive).

**Q.** What does the source list for N#Cc1c(-c2ccco2)cc(-c2ccccc2)nc1O?
**A.** GI50 [1]: > 100 µM (inactive); GI50 [2]: > 100 µM (inactive); GI50 [3]: > 100 µM (inactive); GI50 [4]: > 100 µM (inactive); GI50 [5]: > 100 µM (inactive); GI50 [7]: > 100 µM (inactive); GI50 [8]: > 100 µM (inactive); GI50 [9]: > 100 µM (inactive); GI50 [10]: > 100 µM (inactive); GI50 [11]: > 100 µM (inactive); GI50 [12]: > 100 µM (inactive); GI50 [13]: > 100 µM (inactive); GI50 [16]: > 100 µM (inactive); GI50 [17]: > 100 µM (inactive); GI50 [18]: > 100 µM (inactive); GI50 [19]: > 100 µM (inactive); GI50 [20]: > 100 µM (inactive); GI50 [21]: > 100 µM (inactive); GI50 [22]: > 100 µM (inactive); GI50 [23]: > 100 µM (inactive); GI50 [24]: > 100 µM (inactive); GI50 [25]: > 100 µM (inactive); GI50 [27]: > 100 µM (inactive); GI50 [58]: > 100 µM (inactive); GI50 [28]: > 100 µM (inactive); GI50 [59]: > 100 µM (inactive); GI50 [29]: > 100 µM (inactive); GI50 [30]: > 100 µM (inactive); GI50 [31]: > 100 µM (inactive); GI50 [32]: > 100 µM (inactive); GI50 [33]: > 100 µM (inactive); GI50 [34]: 56.4 µM (inactive); GI50 [35]: > 100 µM (inactive); GI50 [36]: > 100 µM (inactive); GI50 [37]: > 100 µM (inactive); GI50 [38]: > 100 µM (inactive); GI50 [39]: > 100 µM; GI50 [40]: > 100 µM (inactive); GI50 [41]: > 100 µM (inactive); GI50 [42]: > 100 µM (inactive); GI50 [43]: > 100 µM (inactive); GI50 [44]: > 100 µM (inactive); GI50 [46]: > 100 µM (inactive); GI50 [47]: > 100 µM (inactive); GI50 [48]: 63.4 µM (inactive); GI50 [49]: > 100 µM (inactive); GI50 [50]: > 100 µM (inactive); GI50 [51]: > 100 µM (inactive); GI50 [52]: > 100 µM (inactive); GI50 [53]: > 100 µM (inactive); GI50 [54]: > 100 µM (inactive); GI50 [55]: > 100 µM (inactive); GI50 [56]: > 100 µM (inactive); GI50 [57]: > 100 µM (inactive)

Reference: ChEMBL document CHEMBL1201862, “PubChem BioAssay data set” (2004)
